Assay results taken from the CheMixHub ionic liquid set.

Assay: xn = mol fraction of the nth substance listed
Conditions: 100 kPa

CC(C)C[C@H](N)C(=O)O + CCCC[n+]1ccn(C)c1.F[B-](F)(F)F + O
viscosity [mPa·s]
Conditions	308.15 K	313.15 K	318.15 K
x1 = 0.0002738, x2 = 0	0.729	0.663	0.605
x1 = 0.0002786, x2 = 0.0003728	0.763	0.705	0.65
x1 = 0.0002797, x2 = 0.0007255	0.802	0.749	0.694
x1 = 0.0002864, x2 = 0.001099	0.845	0.794	0.74
x1 = 0.0004577, x2 = 0.0007254	0.808	0.754	0.698
x1 = 0.0004593, x2 = 0	0.733	0.667	0.608
x1 = 0.0004597, x2 = 0.001099	0.85	0.8	0.746
x1 = 0.0004649, x2 = 0.0003727	0.768	0.709	0.654
x1 = 0.0006294, x2 = 0.0003726	0.772	0.714	0.659
x1 = 0.0006321, x2 = 0	0.736	0.67	0.612
x1 = 0.0006374, x2 = 0.0007252	0.812	0.759	0.704
x1 = 0.0006474, x2 = 0.001099	0.856	0.805	0.751
x1 = 0.0008066, x2 = 0	0.74	0.674	0.616
x1 = 0.0008173, x2 = 0.0003726	0.777	0.718	0.663
x1 = 0.0008279, x2 = 0.0007251	0.817	0.764	0.708
x1 = 0.0008314, x2 = 0.001099	0.861	0.81	0.756
x1 = 0.0009955, x2 = 0	0.744	0.678	0.619
x1 = 0.001003, x2 = 0.0003725	0.781	0.722	0.667
x1 = 0.001004, x2 = 0.000725	0.822	0.768	0.712
x1 = 0.00101, x2 = 0.001099	0.866	0.815	0.761
x1 = 0.001168, x2 = 0	0.747	0.681	0.622
x1 = 0.001172, x2 = 0.0007248	0.826	0.772	0.716
x1 = 0.001177, x2 = 0.0003724	0.785	0.726	0.671
x1 = 0.001183, x2 = 0.001099	0.871	0.82	0.766
x1 = 0.00135, x2 = 0.0003724	0.789	0.73	0.675
x1 = 0.001357, x2 = 0	0.751	0.684	0.625
x1 = 0.001369, x2 = 0.001098	0.876	0.825	0.771
x1 = 0.00137, x2 = 0.0007247	0.831	0.777	0.721
x1 = 0.001535, x2 = 0	0.755	0.688	0.629
x1 = 0.001541, x2 = 0.0003723	0.794	0.734	0.679
x1 = 0.001554, x2 = 0.001098	0.881	0.83	0.776
x1 = 0.001557, x2 = 0.0007246	0.835	0.781	0.725
x1 = 0.00172, x2 = 0	0.758	0.691	0.632
x1 = 0.00172, x2 = 0.0003722	0.797	0.738	0.682
x1 = 0.00172, x2 = 0.0007244	0.839	0.785	0.729
x1 = 0.001727, x2 = 0.001098	0.886	0.835	0.781
